From patent US20230174468A1, “SULFATED PILLARARENES, METHODS OF MAKING SAME, AND USES THEREOF” (priority 2007, published 2023)
Like-named read-outs stand apart in the source and are kept apart here.

Key:
[1] = tested on: TA100
[2] = tested on: TA1537
[3] = tested on: TA98
[4] = tested on: TA1535
[5] = M2.cis complex, previous work; cited from earlier work
[6] = TA100, +S9, positive control compounds
[7] = TA100, −S9, positive control compounds
[8] = TA1537, +S9, positive control compounds
[9] = TA1537, −S9, positive control compounds
[10] = TA98, +S9, positive control compounds
[11] = TA98, −S9, positive control compounds
[12] = TA1535, +S9, positive control compounds
[13] = TA1535, −S9, positive control compounds

Structure (SMILES)	number of positive wells [1, 6]	significance of positive wells vs control (Fisher's exact test) [1, 6]	number of positive wells [1, 7]	significance of positive wells vs control (Fisher's exact test) [1, 7]	number of positive wells [2, 8]	significance of positive wells vs control (Fisher's exact test) [2, 8]	number of positive wells [2, 9]	significance of positive wells vs control (Fisher's exact test) [2, 9]	number of positive wells [3, 10]	significance of positive wells vs control (Fisher's exact test) [3, 10]	number of positive wells [3, 11]	significance of positive wells vs control (Fisher's exact test) [3, 11]	number of positive wells [4, 12]	significance of positive wells vs control (Fisher's exact test) [4, 12]	number of positive wells [4, 13]	significance of positive wells vs control (Fisher's exact test) [4, 13]	Ka [5] [M⁻¹]
CN(N=O)C(=O)N[C@H]1C(O)O[C@H](CO)[C@@H](O)[C@@H]1O (mixture of isomers) [Streptozotocin]	7/48	− (p >0.05 (negative, −))	5/48	+ (0.01<p<0.05 (weak positive, +))	1/48	− (p >0.05 (negative, −))	1/48	− (p >0.05 (negative, −))	0/48	− (p >0.05 (negative, −))	0/48	− (p >0.05 (negative, −))	24/48	+++ (p<0.001 (very strong positive, +++))	16/48	+++ (p<0.001 (very strong positive, +++))	
Nc1ccc2cc3ccccc3cc2c1 [Host 2-AA, 2-aminoanthracene]	11/48	+ (0.01<p<0.05 (weak positive, +))	0/48	− (p >0.05 (negative, −))	6/48	+ (0.01<p<0.05 (weak positive, +))	0/48	− (p >0.05 (negative, −))	13/48	+++ (p<0.001 (very strong positive, +++))	0/48	− (p >0.05 (negative, −))	9/48	++ (0.001<p <0.01 (strong positive, ++))	0/48	− (p >0.05 (negative, −))	
Nc1c2ccccc2nc2ccccc12 [Host 9-AA, 9-aminoacridine]	2/48	− (p >0.05 (negative, −))	0/48	− (p >0.05 (negative, −))	24/48	+++ (p<0.001 (very strong positive, +++))	24/48	+++ (p<0.001 (very strong positive, +++))	0/48	− (p >0.05 (negative, −))	0/48	− (p >0.05 (negative, −))	0/48	− (p >0.05 (negative, −))	0/48	− (p >0.05 (negative, −))	
C[C@]12N3Cc4c(c(OCCCS(=O)(=O)[O-])c5ccccc5c4OCCCS(=O)(=O)[O-])CN1C(=O)N1CN4C(=O)N5CN6C(=O)N7CN8C(=O)N9Cc%10c(c(OCCCS(=O)(=O)[O-])c%11ccccc%11c%10OCCCS(=O)(=O)[O-])CN%10C(=O)N(CN%11C(=O)N(CN%12C(=O)N(CN(C3=O)[C@]12C)[C@@H]4[C@H]%125)[C@@H]6[C@H]%117)[C@]8(C)[C@@]9%10C.[Na+].[Na+].[Na+].[Na+] [Host M2]																	4.8e+06
O=c1c(O)c(-c2ccc(O)c(O)c2)oc2cc(O)cc(O)c12 [Quercetin]	5/48	− (p >0.05 (negative, −))	0/48	− (p >0.05 (negative, −))	5/48	+ (0.01<p<0.05 (weak positive, +))	1/48	− (p >0.05 (negative, −))	10/48	+++ (p<0.001 (very strong positive, +++))	5/48	+ (0.01<p<0.05 (weak positive, +))	0/48	− (p >0.05 (negative, −))	1/48	− (p >0.05 (negative, −))	
